Reference: patent US20050282743A1, “Molecular interactions in cells” (Arbor Vita Corporation, priority 2001, published 2005)
Blank lines part the entries; values can stand above or below the compound they belong to. Peptide text beside a SMILES is read from it. * marks the point of attachment. Biotin = O=C1N[C@H]2[C@H](CS[C@H]2CCCCC(=O)*)N1

Legend:
Format in all cases: binding
[1] = target: T1, PDZ-domain polypeptide (GST/PDZ fusion protein) (Homo sapiens, UniProt O00560); experiment: Apparent affinity (Kd) by titration of PL peptide in the G assay; settings: PDZ hSyntenin, PDZ Domain 1; titration of the PL peptide; read-out: Peptide Optimal Conc (Kd, dissociation constant)
T1 construct: made in house; host or cells: E. coli (DH5alpha, BL21 or JM109)
T1 sequence (O00560 whole entry, the tested form may be a part): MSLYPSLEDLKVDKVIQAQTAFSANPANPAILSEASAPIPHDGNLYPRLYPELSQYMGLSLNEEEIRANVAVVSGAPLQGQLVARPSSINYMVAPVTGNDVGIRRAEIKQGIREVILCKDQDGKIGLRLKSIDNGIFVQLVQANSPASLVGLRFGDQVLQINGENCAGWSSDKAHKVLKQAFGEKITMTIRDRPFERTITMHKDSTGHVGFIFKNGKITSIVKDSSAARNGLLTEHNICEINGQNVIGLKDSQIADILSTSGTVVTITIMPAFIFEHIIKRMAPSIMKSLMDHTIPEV
Method in brief: (§1)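 A fixed concentration of GST/PDZ fusion protein, 5 ug/ml by default, was mixed in solution with increasing labeled PL peptide (e.g. 0.1 uM-1 mM). Reaction times ranged from 10 minutes to 2 days at 4-37° C. Complexes were separated from free peptide and detected via the label as in the G assay, apparent affinity coming from the saturating concentration.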

[2] = target: T2, PDZ-domain polypeptide (GST/PDZ fusion protein) (Homo sapiens, UniProt Q969H4); experiment: as above; settings: PDZ Connector Enhancer, PDZ Domain 1; Protein Optimal Conc 5
T2 construct: made in house; host or cells: E. coli (DH5alpha, BL21 or JM109)
Method in brief: as §1

[3] = target: T3, PDZ protein (GST-PDZ fusion) (Homo sapiens, UniProt Q8N3R9); experiment: G' assay (10 uM PL peptide), results of TABLE 7 and TABLE 12; settings: PDZ FLJ 12615 (PALS-1), PDZ Domain 1
T3 construct: made in house; host or cells: E. coli (DH5alpha, BL21 or JM109)
Method in brief: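 Biotin-PL peptide (N-term label), 10 uM vs GST-PDZ; protein 5 ug/ml by default. A450 nm binned: 1 = 0-1, 2 = 1-2, 3 = 2-3, 4 = 3-4, 5 = >4 on >2 repeats, 0 = no binding.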

[4] = target: T4, PDZ-domain polypeptide (GST/PDZ fusion protein) (Homo sapiens, UniProt Q07157); experiment: Apparent affinity (Kd) by titration of PL peptide in the G assay; settings: Peptide Optimal Conc (Kd by titration of the PL peptide), PDZ ZO-1, PDZ Domain 2
T4 construct: made in house; host or cells: E. coli (DH5alpha, BL21 or JM109)
T4 sequence (Q07157 whole entry, the tested form may be a part): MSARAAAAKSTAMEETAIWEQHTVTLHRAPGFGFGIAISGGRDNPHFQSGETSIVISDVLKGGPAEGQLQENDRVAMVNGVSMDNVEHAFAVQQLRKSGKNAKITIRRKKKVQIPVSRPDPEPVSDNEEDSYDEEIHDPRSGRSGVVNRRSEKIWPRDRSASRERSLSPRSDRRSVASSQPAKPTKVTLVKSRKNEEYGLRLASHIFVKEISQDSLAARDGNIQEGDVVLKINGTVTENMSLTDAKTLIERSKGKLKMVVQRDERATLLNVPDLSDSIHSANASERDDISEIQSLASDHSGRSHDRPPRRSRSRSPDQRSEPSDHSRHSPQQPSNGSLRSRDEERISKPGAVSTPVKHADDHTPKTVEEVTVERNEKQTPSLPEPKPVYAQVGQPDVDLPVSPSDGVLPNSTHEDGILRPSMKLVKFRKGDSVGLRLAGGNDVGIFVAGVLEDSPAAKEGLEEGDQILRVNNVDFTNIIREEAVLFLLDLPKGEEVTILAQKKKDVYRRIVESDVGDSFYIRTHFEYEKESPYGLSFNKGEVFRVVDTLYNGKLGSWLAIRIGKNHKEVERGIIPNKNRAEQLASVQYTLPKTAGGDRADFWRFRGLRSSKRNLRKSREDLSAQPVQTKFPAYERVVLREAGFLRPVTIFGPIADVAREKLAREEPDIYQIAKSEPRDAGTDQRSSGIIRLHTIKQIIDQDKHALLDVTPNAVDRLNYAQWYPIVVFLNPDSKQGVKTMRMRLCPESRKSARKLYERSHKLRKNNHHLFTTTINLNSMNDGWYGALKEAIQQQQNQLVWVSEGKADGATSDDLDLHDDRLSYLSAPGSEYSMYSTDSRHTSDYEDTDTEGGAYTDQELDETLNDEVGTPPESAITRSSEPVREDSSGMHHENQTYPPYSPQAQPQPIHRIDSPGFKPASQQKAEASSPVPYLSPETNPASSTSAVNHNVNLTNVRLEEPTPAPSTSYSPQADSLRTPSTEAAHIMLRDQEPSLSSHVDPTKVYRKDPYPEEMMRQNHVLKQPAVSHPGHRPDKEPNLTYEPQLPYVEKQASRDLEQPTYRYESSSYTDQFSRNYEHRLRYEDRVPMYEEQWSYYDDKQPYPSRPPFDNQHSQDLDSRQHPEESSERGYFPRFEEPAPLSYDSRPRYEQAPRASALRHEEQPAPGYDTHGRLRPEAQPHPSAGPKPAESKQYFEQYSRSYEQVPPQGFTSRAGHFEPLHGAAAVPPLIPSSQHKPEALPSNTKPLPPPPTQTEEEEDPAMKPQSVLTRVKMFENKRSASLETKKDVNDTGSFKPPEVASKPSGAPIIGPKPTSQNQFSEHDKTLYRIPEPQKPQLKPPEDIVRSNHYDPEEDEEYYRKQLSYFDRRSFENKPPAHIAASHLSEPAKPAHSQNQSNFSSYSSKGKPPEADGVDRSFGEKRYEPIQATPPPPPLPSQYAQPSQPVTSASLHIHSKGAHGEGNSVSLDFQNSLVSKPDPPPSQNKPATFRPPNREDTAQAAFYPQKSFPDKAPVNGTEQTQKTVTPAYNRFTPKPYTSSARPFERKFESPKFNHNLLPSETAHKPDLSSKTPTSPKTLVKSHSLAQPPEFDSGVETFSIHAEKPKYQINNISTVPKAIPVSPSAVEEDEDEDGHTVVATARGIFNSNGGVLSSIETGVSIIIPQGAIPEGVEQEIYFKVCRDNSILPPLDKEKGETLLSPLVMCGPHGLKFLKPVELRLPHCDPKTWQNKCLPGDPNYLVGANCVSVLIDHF
Method in brief: as §1

[5] = target: T5, PDZ-domain polypeptide (GST/PDZ fusion protein) (Homo sapiens, UniProt Q9C0E4); experiment: as above; settings: Peptide Optimal Conc (Kd by titration of the PL peptide)
T5 construct: made in house; host or cells: E. coli (DH5alpha, BL21 or JM109)
T5 sequence (Q9C0E4 whole entry, the tested form may be a part): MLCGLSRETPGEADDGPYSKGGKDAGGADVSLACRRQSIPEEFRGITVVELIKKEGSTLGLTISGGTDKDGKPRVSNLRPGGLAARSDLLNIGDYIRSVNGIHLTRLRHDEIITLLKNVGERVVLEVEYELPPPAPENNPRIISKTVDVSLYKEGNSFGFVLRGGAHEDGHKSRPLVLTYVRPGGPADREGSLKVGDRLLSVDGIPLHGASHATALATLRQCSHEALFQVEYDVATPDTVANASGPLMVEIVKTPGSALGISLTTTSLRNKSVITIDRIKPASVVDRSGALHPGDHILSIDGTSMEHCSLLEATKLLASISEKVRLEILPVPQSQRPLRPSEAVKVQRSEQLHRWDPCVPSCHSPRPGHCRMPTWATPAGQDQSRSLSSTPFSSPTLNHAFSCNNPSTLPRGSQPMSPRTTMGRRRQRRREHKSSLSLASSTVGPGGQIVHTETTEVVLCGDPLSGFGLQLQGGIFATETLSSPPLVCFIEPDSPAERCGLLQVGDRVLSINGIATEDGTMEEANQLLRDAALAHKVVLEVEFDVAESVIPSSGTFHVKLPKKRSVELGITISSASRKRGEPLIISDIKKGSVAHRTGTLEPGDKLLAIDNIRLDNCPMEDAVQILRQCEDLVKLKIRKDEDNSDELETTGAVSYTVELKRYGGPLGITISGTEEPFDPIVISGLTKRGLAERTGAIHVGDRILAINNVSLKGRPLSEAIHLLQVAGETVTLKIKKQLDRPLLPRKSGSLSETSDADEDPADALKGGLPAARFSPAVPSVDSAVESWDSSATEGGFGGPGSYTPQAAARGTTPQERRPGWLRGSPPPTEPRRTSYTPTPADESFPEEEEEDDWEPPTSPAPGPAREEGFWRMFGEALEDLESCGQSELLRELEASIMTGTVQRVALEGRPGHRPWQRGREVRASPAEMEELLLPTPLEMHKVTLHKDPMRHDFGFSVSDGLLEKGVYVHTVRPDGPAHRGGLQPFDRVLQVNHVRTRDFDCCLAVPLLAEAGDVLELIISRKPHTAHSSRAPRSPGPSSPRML
Method in brief: as §1

[6] = target: T6, PDZ-domain polypeptide (GST/PDZ fusion protein) (Homo sapiens, UniProt Q8NI35); experiment: as above; settings: Peptide Optimal Conc (Kd by titration of the PL peptide), PDZ INADL, PDZ Domain 3
T6 construct: made in house; host or cells: E. coli (DH5alpha, BL21 or JM109)
T6 sequence (Q8NI35 whole entry, the tested form may be a part): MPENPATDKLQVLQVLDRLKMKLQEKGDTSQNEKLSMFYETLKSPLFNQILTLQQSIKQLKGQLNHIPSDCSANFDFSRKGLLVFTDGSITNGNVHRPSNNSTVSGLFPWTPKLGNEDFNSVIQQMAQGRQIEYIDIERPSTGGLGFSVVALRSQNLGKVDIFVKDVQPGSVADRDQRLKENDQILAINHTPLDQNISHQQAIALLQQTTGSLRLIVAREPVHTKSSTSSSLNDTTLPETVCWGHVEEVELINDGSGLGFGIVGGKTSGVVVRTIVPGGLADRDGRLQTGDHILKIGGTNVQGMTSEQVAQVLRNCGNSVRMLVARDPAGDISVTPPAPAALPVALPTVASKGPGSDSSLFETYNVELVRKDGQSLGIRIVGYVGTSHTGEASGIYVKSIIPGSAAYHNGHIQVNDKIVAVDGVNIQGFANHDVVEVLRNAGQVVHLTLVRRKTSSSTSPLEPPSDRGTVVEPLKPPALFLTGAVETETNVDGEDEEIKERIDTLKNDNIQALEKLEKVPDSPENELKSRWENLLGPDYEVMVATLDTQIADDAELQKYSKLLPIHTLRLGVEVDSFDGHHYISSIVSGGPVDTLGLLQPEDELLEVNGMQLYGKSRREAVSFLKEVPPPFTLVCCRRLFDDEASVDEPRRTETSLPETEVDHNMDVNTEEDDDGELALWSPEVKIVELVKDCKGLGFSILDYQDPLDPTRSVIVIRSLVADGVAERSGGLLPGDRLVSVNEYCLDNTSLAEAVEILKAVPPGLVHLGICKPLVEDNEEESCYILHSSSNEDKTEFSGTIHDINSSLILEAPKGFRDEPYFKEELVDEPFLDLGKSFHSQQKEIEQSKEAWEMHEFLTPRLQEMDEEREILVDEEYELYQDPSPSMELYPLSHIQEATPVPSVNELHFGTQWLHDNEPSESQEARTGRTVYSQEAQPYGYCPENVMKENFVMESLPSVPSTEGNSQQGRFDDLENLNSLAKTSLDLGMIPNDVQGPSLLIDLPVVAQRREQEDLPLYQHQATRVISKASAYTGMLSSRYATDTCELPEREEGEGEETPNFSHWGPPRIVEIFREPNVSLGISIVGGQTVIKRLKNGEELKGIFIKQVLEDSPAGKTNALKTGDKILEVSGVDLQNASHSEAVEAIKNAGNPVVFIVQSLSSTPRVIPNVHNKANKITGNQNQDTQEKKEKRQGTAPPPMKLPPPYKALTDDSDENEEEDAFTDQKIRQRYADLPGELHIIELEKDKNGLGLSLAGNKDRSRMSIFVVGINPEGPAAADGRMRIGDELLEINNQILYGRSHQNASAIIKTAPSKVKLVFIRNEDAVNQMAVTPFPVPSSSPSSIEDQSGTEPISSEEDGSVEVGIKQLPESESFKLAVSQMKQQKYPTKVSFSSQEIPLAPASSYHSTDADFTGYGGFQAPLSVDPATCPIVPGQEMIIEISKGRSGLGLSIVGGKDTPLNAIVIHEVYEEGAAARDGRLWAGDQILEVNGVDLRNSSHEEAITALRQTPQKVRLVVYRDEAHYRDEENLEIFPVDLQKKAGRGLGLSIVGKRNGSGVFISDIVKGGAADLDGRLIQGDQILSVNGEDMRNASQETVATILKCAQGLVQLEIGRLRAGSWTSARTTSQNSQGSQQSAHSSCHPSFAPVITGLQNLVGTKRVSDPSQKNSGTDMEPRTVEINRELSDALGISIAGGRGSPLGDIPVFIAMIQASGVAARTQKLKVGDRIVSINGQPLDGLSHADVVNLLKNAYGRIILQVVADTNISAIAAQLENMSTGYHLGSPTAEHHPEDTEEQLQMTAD
Method in brief: as §1

TIP-1 (GST-TIP-1) = target: T7, TIP-1 (GST-TIP-1) (Homo sapiens, UniProt O14907, I73S); experiment: G assay with unlabeled 8 amino acid competitor peptide (Example 4, FIGS. 2B, 2C)
T7 construct: made in house; host or cells: E. coli DH5alpha
T7 sequence (O14907 3-123 I73S): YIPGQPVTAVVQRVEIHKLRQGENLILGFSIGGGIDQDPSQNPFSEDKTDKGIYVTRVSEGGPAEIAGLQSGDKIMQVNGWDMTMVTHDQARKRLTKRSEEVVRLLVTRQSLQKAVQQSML
Method: FIGS. 2A, 2B and 2C show binding and competition assays with the PDZ ligands of CD95 (Fas) and Tax for the PDZ domain of TIP-1.
Upon infection, the higher affinity of Tax could preferentially bind TIP-1 protein available in the cell, removing the TIP-1 bound to CD95 (Fas) and thereby rendering the cell less able to undergo apoptosis. In order to test this, competition experiments between Tax and CD95 for TIP-1 binding were performed using the ‘G Assay’, but adding additional unlabeled competitor peptide at step 9 of the ‘G Assay’ presented in EXAMPLE 3 section D.
FIGS. 2B and 2C show the results of these experiments. The graphs show the amount of binding of the biotinylated 20 amino acid peptide in the presence of increasing concentrations of unlabeled 8 amino acid competitor.

[7] = target: T8, PDZ-domain polypeptide (GST/PDZ fusion protein) (Homo sapiens, UniProt Q13796); experiment: Apparent affinity (Kd) by titration of PL peptide in the G assay; settings: PDZ hAPXL, PDZ Domain 1; read-out: Peptide Optimal Conc (non-zero value: Kd by titration of the PL peptide)
T8 construct: made in house; host or cells: E. coli (DH5alpha, BL21 or JM109)
Method in brief: as §1

Kd [1]: 800 nM
SMILES: CC[C@H](C)[C@H](NC(=O)[C@H](Cc1ccc(O)cc1)NC(=O)[C@@H](NC(=O)[C@@H]1CCCN1C(=O)[C@H](CCC(N)=O)NC(=O)[C@H](CCC(=O)O)NC(=O)[C@H](CCC(N)=O)NC(=O)[C@H](C)NC(=O)[C@@H](NC(=O)[C@H](CC(C)C)NC(=O)[C@H](CC(C)C)NC(=O)[C@H](CCCNC(=N)N)NC(=O)[C@H](Cc1ccc(O)cc1)NC(=O)[C@H](CCSC)NC(=O)[C@H](C)NC(=O)[C@H](C)NC(=O)[C@@H]1CCCN1C(=O)[C@H](CCSC)NC(=O)[C@@H](NC(=O)[C@H](CCCCN)NC(=O)CCCC[C@@H]1SC[C@@H]2NC(=O)N[C@@H]21)[C@@H](C)O)[C@@H](C)O)C(C)C)C(=O)O [MINT-1] (Biotin-KTMPAAMYRLLTAQEQPVYI-OH; C-terminus assumed)

SMILES: CC[C@H](C)[C@H](NC(=O)[C@H](CCCCN)NC(=O)[C@@H](NC(=O)[C@H](CO)NC(=O)[C@@H]1CCCN1C(=O)[C@H](Cc1ccccc1)NC(=O)[C@@H](NC(=O)[C@@H](NC(=O)[C@H](CCCNC(=N)N)NC(=O)[C@H](CCC(=O)O)NC(=O)[C@H](CC(C)C)NC(=O)[C@H](CC(C)C)NC(=O)[C@H](CC(C)C)NC(=O)[C@@H](NC(=O)CNC(=O)[C@@H](NC(=O)CCCC[C@@H]1SC[C@@H]2NC(=O)N[C@@H]21)C(C)C)[C@@H](C)O)C(C)C)[C@@H](C)CC)C(C)C)C(=O)N[C@@H](C)C(=O)N[C@H](C(=O)N[C@@H](CC(C)C)C(=O)N[C@H](C(=O)O)C(C)C)[C@@H](C)O [Adenovirus E4 Type9]
Kd [2]: 100 nM

SMILES: CSCC[C@H](NC(=O)[C@H](C)NC(=O)[C@H](CCCNC(=N)N)NC(=O)CNC(=O)[C@@H](NC(=O)[C@H](Cc1c[nH]c2ccccc12)NC(=O)[C@H](CCCNC(=N)N)NC(=O)CNC(=O)CCCC[C@@H]1SC[C@@H]2NC(=O)N[C@@H]21)[C@@H](C)O)C(=O)N[C@@H](CO)C(=O)N[C@@H](C)C(=O)N[C@@H](Cc1c[nH]c2ccccc12)C(=O)N[C@@H](CCCCN)C(=O)N1CCC[C@H]1C(=O)N[C@H](C(=O)N[C@@H](CCCNC(=N)N)C(=O)N[C@@H](CCCNC(=N)N)C(=O)N[C@@H](CCC(=O)O)C(=O)N[C@H](C(=O)N[C@@H](CCC(=O)O)C(=O)N[C@H](C(=O)O)C(C)C)[C@@H](C)O)[C@@H](C)O [HPV E6 #35 (modified)] (Biotin-GRWTGRAMSAWKPTRRETEV-OH; C-terminus assumed)
Classification [3]: 1 (A450 nm 0-1)

SMILES: CC[C@H](C)[C@H](NC(=O)[C@H](C)NC(=O)[C@H](CC(C)C)NC(=O)[C@H](Cc1c[nH]c2ccccc12)NC(=O)[C@H](Cc1c[nH]cn1)NC(=O)[C@H](CCC(N)=O)NC(=O)[C@H](CC(C)C)NC(=O)[C@H](CCC(N)=O)NC(=O)[C@H](Cc1ccccc1)NC(=O)[C@H](CCC(N)=O)NC(=O)[C@H](CCCNC(=N)N)NC(=O)[C@@H](NC(=O)[C@H](CC(=O)O)NC(=O)[C@H](CCCNC(=N)N)NC(=O)[C@H](CCC(N)=O)NC(=O)[C@H](C)NC(=O)[C@@H](NC(=O)[C@H](CC(C)C)NC(=O)[C@H](Cc1c[nH]cn1)NC(=O)[C@H](Cc1c[nH]cn1)NC(=O)CCCC[C@@H]1SC[C@@H]2NC(=O)N[C@@H]21)C(C)C)[C@@H](C)CC)C(=O)O [noradrenaline transporter] (Biotin-HHLVAQRDIRQFQLQHWLAI-OH; C-terminus assumed)
Kd [4]: 400 nM
Kd ([5]; PDZ KIAA1719, PDZ Domain 5): 1000 nM
Kd ([5]; PDZ KIAA1719, PDZ Domain 6): 800 nM
Kd [6]: 600 nM

SMILES: CC[C@H](C)[C@H](NC(=O)[C@H](CCC(N)=O)NC(=O)CCCC[C@@H]1SC[C@@H]2NC(=O)N[C@@H]21)C(=O)N[C@@H](CO)C(=O)N1CCC[C@H]1C(=O)NCC(=O)NCC(=O)N[C@@H](CC(C)C)C(=O)N[C@@H](CCC(=O)O)C(=O)N1CCC[C@H]1C(=O)N1CCC[C@H]1C(=O)N[C@@H](CO)C(=O)N[C@@H](CCC(=O)O)C(=O)N[C@@H](CCCCN)C(=O)N[C@@H](Cc1c[nH]cn1)C(=O)N[C@@H](Cc1ccccc1)C(=O)N[C@@H](CCCNC(=N)N)C(=O)N[C@@H](CCC(=O)O)C(=O)N[C@H](C(=O)N[C@@H](CCC(=O)O)C(=O)N[C@H](C(=O)O)C(C)C)[C@@H](C)O [Tax]
competition for binding to TIP-1 with labeled CD95 (FIG. 2B) (TIP-1 (GST-TIP-1); unlabeled 8 amino acid Tax competitor at 20, 100, and 500 μM, 20 μM labeled CD95 20-mer): able to compete
excess able to compete effectively for TIP-1 binding (TIP-1 (GST-TIP-1); unlabeled Tax 8-mer versus labeled CD95): 5 fold

Kd [7]: 600 nM
SMILES: CC[C@H](C)[C@H](NC(=O)CNC(=O)[C@H](CO)NC(=O)[C@H](Cc1ccccc1)NC(=O)[C@@H](NC(=O)[C@H](CS)NC(=O)CNC(=O)CNC(=O)[C@H](C)NC(=O)[C@@H]1CCCN1C(=O)[C@@H](NC(=O)[C@@H]1CCCN1C(=O)CCCC[C@@H]1SC[C@@H]2NC(=O)N[C@@H]21)[C@@H](C)CC)[C@@H](C)O)C(=O)N[C@@H](Cc1ccccc1)C(=O)N1CCC[C@H]1C(=O)N[C@H](C(=O)N[C@@H](CC(C)C)C(=O)N[C@H](C(=O)N[C@@H](CO)C(=O)N1CCC[C@H]1C(=O)N[C@@H](CC(C)C)C(=O)O)[C@@H](C)O)[C@@H](C)O [KIA 1481] (Biotin-PIPAGGCTFSGIFPTLTSPL-OH; C-terminus assumed)
